US7371776B2, “Methods and compositions for treating cancer” (Mars, Incorporated, priority 2004, dated 2008)

Experiments:
Type in all cases: cell-based, human
SKBR-3 cells [1] = experiment: Crystal violet cellular proliferation assay; settings: 100 μg/mL, ten days after treatment
Protocol: (§1) Human breast cancer cell lines MDA MB-231, MDA MB-436, MD MB-468, SKBR-3 and MCF-7 were obtained from the Lombardi Comprehensive Cancer Center (LCC) Tissue Culture Shared Resource. MDA MB-231, MDA MB-436, MD MB-468 and SKBR-3 are p53-mutated estrogen receptor (ER)-negative cells. MDA MB-231 also contains a mutation in the K-ras oncogene. The MCF-7 cell line is ER-positive and non-mutated for p53. The cells were grown in complete media containing DMEM (Gibco-BRL, Gaithersburg, Md.) supplemented with 10% fetal bovine serum (FBS) (Quality Biological, Gaithersburg, Md.). In addition, media for MCF-7 contained non essential amino acids (Gibco-BRL, Gaithersburg, Md.).
(§2) One×10^3 cells per well were seeded in 96 well dishes (Coming Costar, Cambridge, Mass.). Primary cultures of HMECs, A1N4 and 184B5 cells were evaluated at two different cell densities (seeded at 1×10^3 and 2×10^3 per well). After 24 hours of cell attachment, cells in triplicate wells were treated with pentamer at a concentration of 100 μg/mL. The cells on the same plate were treated with corresponding controls: (i) media containing DMSO, and (ii) media with no additions.
(§3) Cells were treated for 1, 2, 3, 6, 8 and 10 days, but in some cases, the samples were collected at days 2, 3, 4, 7 and 10 post-treatment. Each treatment was conducted in triplicate. Samples were collected at each time point as follows: media was removed and 50 μL of crystal violet solution (0.1% of crystal violet in 0.1 M citric acid solution) was added to each well at room temperature and plates were incubated for 15 minutes, followed by washing with deionized water. Plates were dried at room temperature overnight. The following day, plates were destained by adding 100 μL of 0.1 M sodium citrate solution into each well. Plates were incubated for one hour. The optical density (OD) of samples was read at 550 nm on an Ultramark Microplate Imagining System (BioRad, Philadelphia, Pa.). The experiment was repeated twice resulting in an average of nine measurements per sample. Statistical significance was determined using the t test analysis.

MDA MB-231 cells [2] = experiment: Crystal violet cellular proliferation assay; settings: 100 μg/mL, ten days after treatment
Protocol: as §1, §2, §3

MCF-7 cells [3] = experiment: Crystal violet cellular proliferation assay; settings: MCF-7 (wild type p53, ER-positive); 100 μg/mL
Protocol: as §1, §2, §3

MDA MB-436 cells [4] = experiment: Crystal violet cellular proliferation assay; settings: 100 μg/mL, ten days after treatment
Protocol: as §1, §2, §3

MDA MB-468 cells [5] = experiment: Crystal violet cellular proliferation assay; settings: 100 μg/mL, ten days after treatment
Protocol: as §1, §2, §3

MCF-10A cells [6] = experiment: Crystal violet cellular proliferation assay; settings: 100 μg/mL
Protocol: (§4) The MCF-10A cell line (spontaneously immortalized, non-tumorigenic human mammary epithelial cell line with non-mutated p53) was maintained in F-12/DMEM medium supplemented with 5% horse serum (Gibco), 20 ng/mL EGF (Upstate Biotechnology Incorporated, Lake Placid, N.Y.), 10 μg/mL insulin (Biofluids, Rockville, Md.), and 500 ng/mL hydrocortisone. The same media were used for MCF-10A-ErbB2/Ras cells (Ciardiello, F. et al., Mol Carcinog., 6: 43-52. 1992) and MCF-10A-c-Myc cells (Sheen, J-H. et al., Mol. Cell. Biol., 22: 1819-1833, 2002).
as §2, §3

MCF-10A-ErbB2/Ras cells = experiment: Crystal violet cellular proliferation assay; settings: 100 μg/mL
Protocol: as §4, §2, §3

MCF-10A-c-Myc cells = experiment: Crystal violet cellular proliferation assay; settings: 100 μg/mL
Protocol: as §4, §2, §3

AIN4 cells [7] = experiment: Crystal violet cellular proliferation assay; settings: 100 μg/mL
Protocol: The 184A1N4 cell line (hereinafter “A1N4”) is a non-tumorigenic cell line derived from primary cultures of HMECs and immortalized with benzo(a)pyrene (provided by Dr. M. R. Stampfer, University of California, Berkley, Calif.) (Stampfer, M. R. et al., Proc. Natl. Acad. Sci. USA, 82: 2394-2398, 1985). These cells were maintained in IMEM medium with 0.5% FBS, 0.5 μg/mL of hydrocortisone (Biofluids), 5 μg/mL insulin and 10 ng/mL of EGF.
as §2
Cells were treated for 1, 2, 3, 6, 8 and 10 days, but in some cases, the samples were collected at days 2, 3, 4, 7 and 10 post-treatment. Each treatment was conducted in triplicate. […] The optical density (OD) of samples was read at 550 nm on an Ultramark Microplate Imagining System (BioRad, Philadelphia, Pa.). […] Statistical significance was determined using the t test analysis.

SKBR-3 cells [8] = experiment: Mitochondrial membrane potential depolarization (ApoAlert, flow cytometry)
Protocol: (§5) Mitochondrial membrane potential was determined using ApoAlert™ Mitochondrial Membrane Sensor Kit (Clonetech Inc., Palo Alto, Calif.). The MDA MB-231, MCF-7, MDA MB-468, MDA MB-436, SKBR-3, MCF-10A, MCF-10A-c-Myc and AIN4 cells were grown, in appropriate media, to 60-70% confluence in 25 cm^2 dishes. The following day, the complete media was replaced with complete media containing (i) pentamer (100 μg/mL, or in some cases with 25 μg/mL), (ii) media with DMSO, or (iii) media only. Initially, cells were grown in the presence of pentamer for 1, 2, 3, 6, 12 and 24 hrs but only 1, 2 and 6 hrs treatments were selected for subsequent studies. All floating and adherent cells were combined, and then the cells were aliquoted into flow cytometry tubes. Approximately, 1×10^6 cells per tube were analyzed, according to the manufacturer's instructions. Samples were analyzed at the Lombardi Comprehensive Cancer Center Core Flow Cytometry Shared Resource Facility.

MCF-10A cells [9] = experiment: as above
Protocol: as §5

AIN4 cells [10] = experiment: as above
Protocol: as §5

MDA MB-231 cells [11] = experiment: as above
Protocol: as §5

MCF-7 cells [12] = experiment: as above; settings: several attempts, different passages
Protocol: as §5

MDA MB-436 cells [13] = experiment: as above
Protocol: as §5

MDA MB-468 cells [14] = experiment: as above
Protocol: as §5

[15] = pentamer-treated, average of three experiments

## Oc1cc(O)c2c(c1)O[C@H](c1ccc(O)c(O)c1)[C@H](O)[C@H]2c1c(O)cc(O)c2c1O[C@H](c1ccc(O)c(O)c1)[C@H](O)[C@H]2c1c(O)cc(O)c2c1O[C@H](c1ccc(O)c(O)c1)[C@H](O)[C@H]2c1c(O)cc(O)c2c1O[C@H](c1ccc(O)c(O)c1)[C@H](O)[C@H]2c1c(O)cc(O)c2c1O[C@H](c1ccc(O)c(O)c1)[C@H](O)C2 [pentamer, pentameric procyanidin]
SKBR-3 cells [1]
  growth inhibited, in comparison to DMSO-treated controls: 5.5 fold
MDA MB-231 cells [2]
  growth inhibited, in comparison to DMSO-treated controls: 5 fold
MCF-7 cells [3]
  growth inhibition: 5.6 fold
MDA MB-436 cells [4]
  growth inhibited, in comparison to DMSO-treated controls: 4.1 fold
MDA MB-468 cells [5]
  growth inhibited, in comparison to DMSO-treated controls: 4 fold
MCF-10A cells [6]
  pentamer-induced growth inhibition: equally resistant
MCF-10A-ErbB2/Ras cells
  pentamer-induced growth inhibition: equally resistant
MCF-10A-c-Myc cells
  pentamer-induced growth inhibition: equally resistant
AIN4 cells [7]
  growth inhibited, in comparison to DMSO-treated controls: 7.3 fold
SKBR-3 cells [8]
  MMP depolarization, Fold Increase over DMSO: 2.5
SKBR-3 cells [8]; [15]
  MMP depolarization (%): 25%
MCF-10A cells [9]
  MMP depolarization, Fold Increase over DMSO: 2
MCF-10A cells [9]; [15]
  MMP depolarization (%): 20%
AIN4 cells [10]
  MMP depolarization, Fold Increase over DMSO: 3.2
AIN4 cells [10]; [15]
  MMP depolarization (%): 20%
MDA MB-231 cells [11]
  MMP depolarization, Fold Increase over DMSO: 14.5
MDA MB-231 cells [11]; 100 μg/mL, 1, 2 and 6 hours
  depolarization of mitochondrial membrane, time course: time-dependent depolarization
MDA MB-231 cells [11]; 25 and 100 μg/mL
  depolarization of mitochondrial membrane, dose response: dose-dependent response
MDA MB-231 cells [11]; [15]
  MMP depolarization (%): 58%
MCF-7 cells [12]
  depolarization of the mitochondrial membrane: depolarization could not be demonstrated
MDA MB-436 cells [13]
  MMP depolarization, Fold Increase over DMSO: 5.7
MDA MB-436 cells [13]; [15]
  MMP depolarization (%): 50%
MDA MB-468 cells [14]
  MMP depolarization, Fold Increase over DMSO: 5
MDA MB-468 cells [14]; [15]
  MMP depolarization (%): 60%
